The subject of data set [1] is herpes simplex 1 virus (HSV1). The data set is described as follows: Plaque Assay 1 (plaque counting). The class given is cell-based. To be noted: for plaques seen in plaque assay: concentration and dilution not stated. Here is the method: The compounds prepared in Examples 1-4 were tested in a plaque assay using herpes simplex 1 virus (HSV1), and acyclovir (ACV) as a reference compound. […] The plaque counting results obtained when using the compounds of Examples 1 and 4, and the reference compound ACV, respectively, are shown in Tables 1-3.

The subject of data set [2] is HSV-1. To be noted: in vitro; cited from earlier work.

Where a name gives a salt, the structure may show the parent alone.

As to `Cc1cc2nc3c4cc(Cl)ccc4n(CC(=S)NCCN(C)C)c3nc2cc1C` [Example 3, 9-chloro-N-[2-(dimethylamino)ethyl]-2,3-dimethyl-6H-Indolo[2,3-b]quinoxaline-6-thioacetamide], the “plaques seen in plaque assay” value in data set [1] is given as “no plaques could be seen”.

For the compound `Cc1cc2nc3c4ccccc4n(CC[N+](C)(C)C)c3nc2cc1C` [Example 4, 2,3-dimethyl-6-[2-(trimethylamino)ethyl]-6H-indolo[2,3-b]quinoxaline methyl sulfate], the plaque count in data set [1] (compound 1 uM, 10^1 dilution) turned out to be 11; in data set [1] (compound 5 uM, 10^1 dilution), 2.

In general, melting point refers to the temperature, or range, at which the solid turns liquid. For the compound `Br.C=CC[N+](C)(C)CCn1c2ccccc2c2nc3cc(C)c(C)cc3nc21`, the melting point was 248 to 252 °C.

Regarding `Cc1cc2nc3c4cc(Cl)ccc4n(CC(=O)NCCN(C)C)c3nc2cc1C` [Example 2, 9-chloro-N-[2-(dimethylamino)ethyl]-2,3-dimethyl-6H-Indolo[2,3-b]quinoxaline-6-acetamide], the “plaques seen in plaque assay” value in data set [1] was “no plaques could be seen”.

Turning to `Nc1nc2c(ncn2COCCO)c(=O)[nH]1` [ACV, acyclovir, reference compound], the plaque count in data set [1] (compound 1 uM, 10^1 dilution) was 15; in data set [1] (compound 5 uM, 10^1 dilution), 8; in data set [1] (compound 5 uM, 10^2 dilution), 1; in data set [1] (compound 25 uM, 10^1 dilution), 2. Moreover, in data set [2], the “selectivity ratio for the inhibitory activity against HSV-1” value is on record as “about 2000”.

Consider `Cc1cc2nc3c4ccccc4n(CC[N+](C)(C)C)c3nc2cc1C.[I-]` [Example 1, 2,3-Dimethyl-6-[2-(trimethylamino)ethyl]-6H-indolo[2,3-b]quinoxaline iodide], for which the plaque count turned out to be 19 in data set [1] (compound 1 uM, 10^1 dilution); 3 in data set [1] (compound 1 uM, 10^2 dilution); 1 in data set [1] (compound 1 uM, 10^3 dilution); 8 in data set [1] (compound 5 uM, 10^1 dilution); 2 in data set [1] (compound 5 uM, 10^2 dilution).

The values are drawn from patent US20160031889A1, “ANTIVIRAL INDOLO[2,3-B]QUINOXALINE” (VIRONOVA HERPES AB, priority 2013, published 2016).
